Results from ChEMBL document CHEMBL1145675, “Antibacterial activity studies of flavonoids from Salvia palaestina” (1983).
Converted amounts (≈) assume the structure as drawn.

Legend:
Format in all cases: functional
Staphylococcus aureus [1] = assay: Antimicrobial activity against Staphylococcus aureus ATCC 6538 by disc-diffusion method
[2] = test system: Staphylococcus epidermidis; assay: Antimicrobial activity against Staphylococcus epidermidis ATCC 12228 by disc-diffusion method
Escherichia coli [3] = assay: Antimicrobial activity against Escherichia coli ATCC 8739 by tube dilution method
Klebsiella pneumoniae [4] = assay: Antimicrobial activity against Klebsiella pneumoniae UC57 by disc-diffusion method
Proteus vulgaris [5] = assay: Antimicrobial activity against Proteus vulgaris ATCC 8427 by disc-diffusion method
Pseudomonas aeruginosa [6] = assay: Antimicrobial activity against Pseudomonas aeruginosa ATCC 1539 by disc-diffusion method
Escherichia coli [7] = assay: Antimicrobial activity against Escherichia coli ATCC 8739 by disc-diffusion method
Pseudomonas aeruginosa [8] = assay: Antimicrobial activity against Pseudomonas aeruginosa ATCC 1539 by tube dilution method
Staphylococcus aureus [9] = assay: Antimicrobial activity against Staphylococcus aureus ATCC 6538 by tube dilution method
[10] = test system: Staphylococcus epidermidis; assay: Antimicrobial activity against Staphylococcus epidermidis ATCC 12228 by tube dilution method
Klebsiella pneumoniae [11] = assay: Antimicrobial activity against Klebsiella pneumoniae UC57 by tube dilution method
Proteus vulgaris [12] = assay: Antimicrobial activity against Proteus vulgaris ATCC 8427 by tube dilution method

Row | SMILES | inhibition zone (IZ) (Staphylococcus aureus [1]) [mm] | inhibition zone (IZ) [2] [mm] | MBC (Escherichia coli [3]) [µg/mL] | MIC (Escherichia coli [3]) [µg/mL] | inhibition zone (IZ) (Klebsiella pneumoniae [4]) [mm] | inhibition zone (IZ) (Proteus vulgaris [5]) [mm] | inhibition zone (IZ) (Pseudomonas aeruginosa [6]) [mm] | inhibition zone (IZ) (Escherichia coli [7]) [mm] | MBC (Pseudomonas aeruginosa [8]) [µg/mL] | MIC (Pseudomonas aeruginosa [8]) [µg/mL] | MBC (Staphylococcus aureus [9]) [µg/mL] | MIC (Staphylococcus aureus [9]) [µg/mL] | MBC [10] [µg/mL] | MIC [10] [µg/mL] | MBC (Klebsiella pneumoniae [11]) [µg/mL] | MIC (Klebsiella pneumoniae [11]) [µg/mL] | MBC (Proteus vulgaris [12]) [µg/mL] | MIC (Proteus vulgaris [12]) [µg/mL]
1 | O=c1cc(-c2ccc(O)c(O)c2)oc2cc(O[C@@H]3O[C@H](CO)[C@@H](O)[C@H](O)[C@H]3O)cc(O)c12 [GALUTEOLIN] | <7 | <7 | 500 (≈ 1120 µM) | 250 (≈ 558 µM) | <7 | <7 | <7 |  |  |  |  |  |  |  |  |  |  | 
2 | COc1ccc(-c2cc(=O)c3cc(OC)c(OC)cc3o2)cc1OC | <7 | <7 |  |  | <7 | <7 |  | <7 | 250 (≈ 730 µM) | 125 (≈ 365 µM) |  |  |  |  |  |  |  | 
3 | COc1cc2oc(-c3ccc(O)cc3)cc(=O)c2c(O)c1OC [CIRSIMARITIN] |  |  | 90 (≈ 286 µM) | 45 (≈ 143 µM) |  |  |  |  | 125 (≈ 398 µM) | 31.2 (≈ 99.4 µM) | 125 (≈ 398 µM) | 31.2 (≈ 99.4 µM) | 125 (≈ 398 µM) | 62.5 (≈ 199 µM) | 90 (≈ 286 µM) | 45 (≈ 143 µM) | 125 (≈ 398 µM) | 31.2 (≈ 99.4 µM)
4 | O=c1cc(-c2ccc(O)c(O)c2)oc2cc(O)cc(O)c12 [LUTEOLIN] | <7 | <7 | 500 (≈ 1750 µM) | 125 (≈ 437 µM) |  | <7 |  |  | 500 (≈ 1750 µM) | 125 (≈ 437 µM) |  |  |  |  | 500 (≈ 1750 µM) | 125 (≈ 437 µM) |  | 
